IC50 data for 4 compounds are collected here from US7517902B2, “Substituted indazoles, compositions containing the same, and the preparation and use thereof” (Aventis Pharma S.A., priority 2004, dated 2009).

One experiment addresses T1, Aurora2 (Homo sapiens, UniProt O14965).
T1 construct: Aurora 2: whole recombinant protein comprising an N-terminal histidine tail; His tag (histidine tail) (N); made in house; host or cells: E. coli
T1 sequence (O14965 1-403): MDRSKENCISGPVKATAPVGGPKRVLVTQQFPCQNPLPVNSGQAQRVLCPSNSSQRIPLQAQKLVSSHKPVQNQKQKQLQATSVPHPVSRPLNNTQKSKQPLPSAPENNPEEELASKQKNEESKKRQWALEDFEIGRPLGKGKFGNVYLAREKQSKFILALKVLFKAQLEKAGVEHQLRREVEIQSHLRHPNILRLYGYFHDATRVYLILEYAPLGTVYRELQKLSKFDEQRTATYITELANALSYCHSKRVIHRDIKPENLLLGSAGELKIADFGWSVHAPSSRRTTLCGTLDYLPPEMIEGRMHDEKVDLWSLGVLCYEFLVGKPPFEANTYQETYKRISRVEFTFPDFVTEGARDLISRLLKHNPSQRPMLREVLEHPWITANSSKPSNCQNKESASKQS
The experiment can be described thus: Aurora2 enzyme assay, NuMA substrate phosphorylation (Flashplate). Format: biochemical. The settings on record: read-out: IC 50 Aurora2. The essentials: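 Recombinant full-length N-His Aurora2 (E. coli), 10 nM, phosphorylates 500 nM His-NuMA fragment with 1 µM ATP plus [33P]ATP in Tris/HCl pH 7.5, NaCl, MgCl2, DTT, 37 °C, 30 min, on Ni-chelate Flashplates. Incorporated 33P counted by scintillation; percent inhibition versus enzyme control after background subtraction.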

Another experiment has as its target T2, human Tie2 (Homo sapiens, UniProt Q02763).
T2 construct: amino acids of the intracellular domain 776-1124; made in house
As to the kind of experiment: Tie2 assay of PLC phosphorylation (FlashPlate). Format: biochemical. The settings on record: read-out: IC 50 TIE2.

Structures are written as SMILES. pIC50: −log10 of the molar value. Counter-ions that a name gives are not always drawn.

T2 sequence (Q02763 776-1124): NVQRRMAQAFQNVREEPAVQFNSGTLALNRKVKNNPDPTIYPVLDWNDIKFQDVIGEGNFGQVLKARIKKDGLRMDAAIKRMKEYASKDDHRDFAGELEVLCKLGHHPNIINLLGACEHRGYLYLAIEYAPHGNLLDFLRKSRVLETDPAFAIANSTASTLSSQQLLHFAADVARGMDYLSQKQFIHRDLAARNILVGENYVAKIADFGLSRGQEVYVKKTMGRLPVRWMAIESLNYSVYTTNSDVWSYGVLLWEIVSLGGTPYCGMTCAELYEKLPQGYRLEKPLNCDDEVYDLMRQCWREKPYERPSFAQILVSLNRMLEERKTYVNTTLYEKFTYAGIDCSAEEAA

As to `Nc1n[nH]c2cc(-c3ccc(NS(=O)(=O)c4cccc(Cl)c4Cl)cc3)ccc12` [Example 2, 1-[4-(3-Amino-1H-indazol-6-yl)phenyl]-2,3-dichlorobenzenesulfonamide hydrochloride], the values for the pIC50 on Aurora2 and at human Tie2 were 6.70 and 7.82, respectively.
On the same counts, the results for `O=C(Nc1n[nH]c2cc(-c3ccc(NS(=O)(=O)c4cccc(Cl)c4Cl)cc3)ccc12)c1ccsc1` [Example 3, 3-Thiophenecarboxylic acid {6-[4-(2,3dichlorobenzenesulfonylamino)phenyl]-1H-indazol-3-yl}amide] are 6.88 and 8.40.
The like results for `O=C(Nc1n[nH]c2c(F)c(-c3ccc(NS(=O)(=O)c4cccc(Cl)c4Cl)cc3)ccc12)c1ccsc1` [Example 5, 3-Thiophenecarboxylic acid {6-[4-(2,3-dichlorobenzenesulfonylamino)-7-fluorophenyl]-1H-indazol-3-yl}amide] were, in that order, 7.43 and 8.70.
On the same counts, the results for `Nc1n[nH]c2c(F)c(-c3ccc(NS(=O)(=O)c4cccc(Cl)c4Cl)cc3)ccc12` [Example 8, 1-[4-(3-Amino-1H-indazol-6-yl)-7-fluorophenyl]-2,3-dichlorobenzenesulfonamide hydrochloride] are 7.06 and 8.00.
